Assay results published in patent US20160287617A1 (priority 2013, published 2016).
Marks after values point to notes of the source that are not given here.

Experiments:
Design in all cases: species or system broiler chickens
Details in all cases: in vivo
T-2 toxin in chickens [1] = test system: T-2 toxin in chickens
T-2 toxin in chickens [2] = test system: T-2 toxin in chickens; remark: listed apart in the source
T-2 toxin in chickens [3] = test system: T-2 toxin in chickens; remark: listed apart in the source
T-2 toxin in chickens [4] = test system: T-2 toxin in chickens; remark: listed apart in the source
Newcastle = test system: Newcastle
T-2 toxin in chickens [5] = test system: T-2 toxin in chickens; remark: listed apart in the source

Substance: T-2 toxin
- Feed consumption, medians ± standard error (T-2 toxin in chickens [1]): 2035 ± 44.3 ^a
- Feed conversion, medians ± standard error (T-2 toxin in chickens [1]): 1.45 ± 0.035 ^b
- Weight gain, medians ± standard error (T-2 toxin in chickens [1]): 1399 ± 29.46 ^b
- Weight in g, Final (28 days), medians ± standard error (T-2 toxin in chickens [1]): 1442 ± 29.49 ^b g
- Weight in g, Initial, medians ± standard error (T-2 toxin in chickens [1]): 43 ± 0.43 ^a g
- Xantophylls (oral solution), medians ± standard error (T-2 toxin in chickens [1]; po): 8.92 ± 0.70 ^b mg/L
- Relative weight of bursa of Fabricius (%), medians ± standard error (T-2 toxin in chickens [2]): 0.248 ± 0.016 ^a %
- Relative weight of kidney (%), medians ± standard error (T-2 toxin in chickens [2]): 0.809 ± 0.032 ^a %
- Relative weight of liver (%), medians ± standard error (T-2 toxin in chickens [2]): 2.57 ± 0.104 ^a %
- Relative weight of spleen (%), medians ± standard error (T-2 toxin in chickens [2]): 0.094 ± 0.009 ^a %
- Relative weight of thymus (%), medians ± standard error (T-2 toxin in chickens [2]): 0.282 ± 0.020 ^a %
- Granulocytes (segmented neutrophils and band neutrophils), medians ± standard error (T-2 toxin in chickens [3]): 0.9 ± 0.17 ^a 10^3/μL
- Hematocrit, medians ± standard error (T-2 toxin in chickens [3]): 31.8 ± 1.56 ^a %
- Hemoglobin, medians ± standard error (T-2 toxin in chickens [3]): 12.1 ± 0.46 ^a g/dL
- Lymphocytes, medians ± standard error (T-2 toxin in chickens [3]): 58.4 ± 3.32 ^b 10^3/μL
- Median cell count (monocytes, basophils and eosinophils), medians ± standard error (T-2 toxin in chickens [3]): 5.8 ± 0.76 ^a 10^3/μL
- Platelets, medians ± standard error (T-2 toxin in chickens [3]): 31 ± 4.95 ^a 10^3/μL
- Red blood cells (erythrocytes), medians ± standard error (T-2 toxin in chickens [3]): 2.46 ± 0.12 ^a 10^6/μL
- White blood cells (Leukocytes), medians ± standard error (T-2 toxin in chickens [3]): 65.10 ± 4.07 ^b 10^3/μL
- Ash, medians ± standard error (T-2 toxin in chickens [4]): 56.37 ± 0.32 ^a %
- Calcium, medians ± standard error (T-2 toxin in chickens [4]): 20.43 ± 0.19 ^a %
- Manganesium, medians ± standard error (T-2 toxin in chickens [4]): 6.7 ± 0.21 ^a mg/kg
- Phosphorous, medians ± standard error (T-2 toxin in chickens [4]): 9.72 ± 0.07 ^a %
- Zinc, medians ± standard error (T-2 toxin in chickens [4]): 247 ± 4.37 ^a mg/kg
- Inhibition of Newcastle hemagglutination (18 days after vaccination), medians ± standard error (Newcastle): 8.717 ± 0.29 ^b Log2
- Gizzard: loss of continuity, ulcer activity (moderate multifocal ulcerative ventriculitis) (T-2 toxin in chickens [5]): 7/12
- Gizzard: scant erosions in the recovery zone (discrete, multifocal erosions) (T-2 toxin in chickens [5]): 5/12
- Kidney: lymphocyte clusters in the interstitial space (T-2 toxin in chickens [5]): 4/12
- Larynx: no significant changes (T-2 toxin in chickens [5]): 4/12
- Liver: areas of extramedullary hematopoiesis (T-2 toxin in chickens [5]): 1/12
- Liver: multifocal lymphocyte clusters around portal cavities and in the parenchymal (lymphocytic colangiohepatitis) (T-2 toxin in chickens [5]): 8/12
- Liver: scant fat vacuoles/cells in hepatocyte cytoplasm (esteatosis) (T-2 toxin in chickens [5]): 3/12
- Proventriculus: hyperplasia / cluster of associated lymphoid tissue (T-2 toxin in chickens [5]): 1/12
- Proventriculus: no significant changes (T-2 toxin in chickens [5]): 11/12
- Spleen, thymus: no significant changes (T-2 toxin in chickens [5]): 12/12
- Tongue: dense plates above epithelium lining with lymphocyte and macrophage clusters (estomatitis and erosive/necrotic glositis) (T-2 toxin in chickens [5]): 8/12
- Tongue: no significant changes (animals/examined) (T-2 toxin in chickens [5]): 4/12
